pIC50: −log10 of the molar value. Values joined by “and” are separate entries in the source; they are usually repeats but may differ in a detail not shown here. Equal values may be shown once.
System: 616215-338-R-J1-PDC complex spheroid viability
Experiment: Anticancer human tumor 616215-338-R-J1-PDC patient-derived colon adenocarcinoma cell line growth inhibition [RAS]
Details: for viability, T/C: stronger effect = lower value
Text: RAS pathway inhibitors in Combinations in Complex Spheroids
A high-throughput screen of multi-cell type tumor spheroids was designed to identify active combinations of RAS pathway inhibitors and targeted small molecules. Complex spheroids include a stromal component modeled by human endothelial cells (HUVEC) and fibroblasts modeled by human mesenchymal stem cells (MSCs). The concentration ranges selected for each drug and investigational agent were based upon clinically achievable concentrations if the clinical Cmax of the agent was known.
Compounds. The drugs and investigational agents: abemaciclib (NSC768073), cobimetinib (NSC768068), divarasib (GDC6063, NSC841802), docetaxel (NSC628503), GDC-1971 (RLY-1971, NSC841576), gemcitabine (NSC613327), inavolisib (NSC800729), ipatasertib (NSC767898), KB-0742 (NSC834161), MRTX-1133 (NSC836407), osimertinib (NSC779217), RMC-4630 (NSC839698), RMC-6236 (NSC851965), RMC-6291 (NSC852671), Ro-3306 (NSC812927), sapanisertib (NSC764658), SN-38 (NSC673596), staurosporine (NSC755774), SY5609 (NSC837396), and tovorafenib (DAY101, NSC766906), were obtained from the National Cancer Institute (NCI) Developmental Therapeutics Program Chemical Repository. The FDA-approved anticancer drug set is available from the NCI Developmental Therapeutics Program. […] The stock solutions were prepared in dimethyl sulfoxide (DMSO, Sigma-Aldrich, St. Louis, MO, cat. D2650) at 800-fold the tested concentration and stored at -70 degrees C prior to their use. All drugs and investigational agents were tested over a range starting from a high concentration at or near the clinical Cmax and decreasing in half-log increments. If the clinical Cmax for an agent had not been determined, the highest concentration tested was 10 microM.
Cell Culture. All cells were maintained in an incubator at 37 degrees C and 5% CO2 with 95% humidity. The PDC lines were cultured according to standard operating procedures established by the NCI PDMR. All PDCs were thawed and cultured in Matrigel-coated flasks prepared with a working solution of 1X Ham's F-12 nutrient mix, without supplementation (Invitrogen, Waltham, MA, cat. 11765054), 100 U/mL penicillin-streptomycin (Invitrogen, cat. 15140122), and 2.5% Matrigel (Corning Inc., Corning, NY, cat. 354248) for the first three passages. The 362531-283-R-J2-PDC and 782815-120-R-J1-PDC lines were cultured in 6C/Colon 1B media, which includes advanced DMEM/F-12 (Thermo Fisher Scientific, cat. 12634028), 10 mM HEPES (Thermo Fisher Scientific, cat. 15630080), 1X GlutaMAX supplement (Thermo Fisher Scientific, cat. 35050061), 0.1 mg/mL primocin (InvivoGen, San Diego, CA, cat. ant-pm-2), 10% defined fetal bovine serum, heat inactivated (HyClone Laboratories Inc., Logan, UT, cat. SH30070.03HI), 50% L-WRN conditioned media (ATCC, cat. CRL-3276), 1.25 mM N-Acetyl-L-cysteine (Sigma-Aldrich, cat. A9165), 10 mM nicotinamide (Sigma-Aldrich, cat. N0636), 1X B-27 supplement (Thermo Fisher Scientific, cat. 17504044), 1X N-2 supplement (Thermo Fisher Scientific, cat. 17502048), 50 ng/mL human EGF (Thermo Fisher Scientific, cat. PHG0311), and 10 microM Y-27632 dihydrochloride (Tocris Bioscience, cat. 1254). The K12877-001-R-J1-PDC line was cultured in 6I media, which includes all 6C/Colon 1B media plus 10 ng/mL human FGF-10 (PeproTech, cat. 100-26), 1 ng/mL human FGF-2 (PeproTech, cat. 100-18B), 1 µM prostaglandin E2 (Tocris Bioscience, cat. 2296), […] hydrocortisone (Sigma-Aldrich, cat. H4001), and […] bovine insulin (Sigma-Aldrich, cat. I6634). The K86415-001-R-J1-PDC line was cultured in 6D media, which includes all 6C/Colon 1B media components minus the L-WRN conditioned media. The 485176-168-R4-J1-PDC was cultured in PANC media, which includes all 6C/Colon 1B media plus 100 ng/mL human FGF-10 (PeproTech, cat. 100-26), 500 nM SB-431542 (Selleckchem, cat. S1067), and 10 nM gastrin (Tocris Bioscience, cat. 3006). […]

[1] = compound alone, run of 06/10/2024
[2] = compound alone, run of 05/20/2024
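Also: spheroids exposed to agents for seven days before viability readout.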
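For viability, T/C in this document: 100% = DMSO vehicle control viability.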

SMILES | viability, T/C (compound 0.0316 µM) | viability, T/C (compound 0.1 µM) | viability, T/C (compound 0.316 µM) | viability, T/C (compound 1 µM) | viability, T/C (compound 3.16 µM) | viability, T/C (compound 10 µM) | viability, T/C (compound 0.00316 µM) | viability, T/C (compound 0.01 µM) | pIC50 (curve of compound) | IC50 (curve of compound) | further results
C#Cc1c(F)ccc2cc(O)cc(-c3ncc4c(N5CC6CCC(C5)N6)nc(OCC56CCCN5CC(F)C6)nc4c3F)c12 (stereo unspecified) | 107% [middle of 8 runs] | 107% [middle of 8 runs] | 110% [middle of 8 runs] | 108% [middle of 8 runs] | 102% [middle of 8 runs] | 70.6% [middle of 8 runs] |  |  |  |  | pIC50 [1]: < 5.00
C=CC(=O)N1CCN(c2nc(OCC3CCCN3C)nc3c(F)c(-c4nc(N)cc(C)c4C(F)(F)F)c(Cl)cc23)C(C)C1 (stereo unspecified) | 99.4% [middle of 12 runs] | 102% [middle of 12 runs] | 104% [middle of 12 runs] | 103% [middle of 12 runs] |  |  | 100% [middle of 12 runs] | 102% [middle of 12 runs] | < 6.00 |  | pIC50 [1]: < 6.00
C=CC(=O)Nc1cc(Nc2nccc(-c3cn(C)c4ccccc34)n2)c(OC)cc1N(C)CCN(C)C | 103% [middle of 4 runs] | 105% [middle of 4 runs] | 109% [middle of 4 runs] | 74.3% [middle of 4 runs] |  |  | 96.5% [middle of 4 runs] | 100% (2×) and 96% and 97.4% | < 6.00 |  | 
CC(C)NCC(C(=O)N1CCN(c2ncnc3c2C(C)CC3O)CC1)c1ccc(Cl)cc1 (stereo unspecified) | 105% [middle of 4 runs] | 100% [middle of 4 runs] | 100% [middle of 4 runs] | 101% [middle of 4 runs] | 95.3% (2×) and 87.8% and 95.7% | 49.3% [middle of 4 runs] |  |  |  |  | 
CC(C)n1nc(-c2ccc3oc(N)nc3c2)c2c(N)ncnc21 | 110% [middle of 4 runs] | 75.2% [middle of 4 runs] |  |  |  |  | 94.6% and 107% (2×) and 98% | 107% [middle of 4 runs] | < 7.00 |  | viability, T/C (compound 0.000316 µM): 99.5% (2×) and 101% and 97.1%; viability, T/C (compound 0.001 µM): 105% [middle of 4 runs]
CC(Nc1ccc2c(c1)OCCn1cc(N3C(=O)OCC3C(F)F)nc1-2)C(N)=O (stereo unspecified) | 111% [middle of 4 runs] | 108% [middle of 4 runs] | 110% [middle of 4 runs] | 107% [middle of 4 runs] | 102% [middle of 4 runs] | 83.5% [middle of 4 runs] |  |  | < 5.00 |  | 
CC1(C)CCC(Nc2ncc(C(F)(F)F)c(-c3c[nH]c4c(P(C)(C)=O)c(C#N)ccc34)n2)CN1 (stereo unspecified) |  |  |  |  |  |  |  |  |  | 20.3 nM [middle of 4 runs] | viability, T/C (compound 0.000949 µM): 98.8% [middle of 4 runs]; viability, T/C (compound 0.003 µM): 101% [middle of 4 runs]; viability, T/C (compound 0.00949 µM): 66.1% [middle of 4 runs]; viability, T/C (compound 0.03 µM): 40.8% [middle of 4 runs]; viability, T/C (compound 0.0949 µM): 37% [middle of 4 runs]; viability, T/C (compound 0.3 µM): 35.2% [middle of 4 runs]
CC1(O)CCCC1n1c(=O)c(C(F)F)cc2cnc(NC3CCN(S(C)(=O)=O)CC3)nc21 (stereo unspecified) | 112% [middle of 4 runs] | 103% [middle of 4 runs] | 59.3% [middle of 4 runs] | 56.1% [middle of 4 runs] | 48.9% [middle of 4 runs] | 2.6% [middle of 4 runs] |  |  |  | 1.23 µM [middle of 4 runs] | 
CCC(CC)c1cc(NC2CCC(N)C2)n2nccc2n1 (stereo unspecified) | 109% [middle of 4 runs] | 99.7% and 102% (2×) and 93.3% | 93.8% [middle of 4 runs] | 107% [middle of 4 runs] | 0.63% [middle of 4 runs] | 0.37% [middle of 4 runs] |  |  |  | 1.8 µM [middle of 4 runs] | 
CCN1CCN(Cc2ccc(Nc3ncc(F)c(-c4cc(F)c5nc(C)n(C(C)C)c5c4)n3)nc2)CC1 | 113% [middle of 4 runs] | 117% (3×) and 120% |  | 64.1% (2×) and 70.2% and 59.4% |  |  |  | 104% [middle of 4 runs] | < 6.00 |  | 
CCc1c2c(nc3ccc(O)cc13)-c1cc3c(c(=O)n1C2)COC(=O)[C@]3(O)CC |  |  |  |  |  |  |  |  |  |  | viability, T/C (compound 0.000949 µM): 104% [middle of 4 runs]; viability, T/C (compound 0.003 µM): 105% [middle of 4 runs]; viability, T/C (compound 0.03 µM): 37.2% [middle of 4 runs]; viability, T/C (compound 0.0949 µM): 24.3% [middle of 4 runs]; viability, T/C (compound 0.3 µM): 16.9% [middle of 4 runs]
CCn1c(-c2cc(N3CCN(C)CC3)cnc2C(C)OC)c2c3cc(ccc31)-c1csc(n1)CC(NC(=O)C1CC1C)C(=O)N1CCCC(N1)C(=O)OCC(C)(C)C2 (stereo unspecified) |  |  |  |  |  |  |  |  |  |  | viability, T/C (compound 0.000949 µM): 107% [middle of 8 runs]; viability, T/C (compound 0.003 µM): 106% [middle of 8 runs]; viability, T/C (compound 0.00949 µM): 81.7% [middle of 8 runs]; viability, T/C (compound 0.03 µM): 53.7% [middle of 8 runs]; viability, T/C (compound 0.0949 µM): 40.6% [middle of 8 runs]; viability, T/C (compound 0.3 µM): 37.5% [middle of 8 runs]; IC50 [2]: 41.2 nM [middle of 8 runs]
CCn1c(-c2cccnc2C(C)OC)c2c3cc(ccc31)N1CCOC(CC(NC(=O)C(C(C)C)N(C)C(=O)C3(F)CCN(C(=O)C#CC(C)(C)N(C)C)CC3)C(=O)N3CCCC(N3)C(=O)OCC(C)(C)C2)C1 (stereo unspecified) |  |  |  |  |  |  |  |  |  |  | viability, T/C (compound 0.000949 µM): 102% [middle of 8 runs]; viability, T/C (compound 0.003 µM): 102% [middle of 8 runs]; viability, T/C (compound 0.00949 µM): 107% [middle of 8 runs]; viability, T/C (compound 0.03 µM): 106% [middle of 8 runs]; viability, T/C (compound 0.0949 µM): 110% [middle of 8 runs]; viability, T/C (compound 0.3 µM): 109% [middle of 8 runs]; pIC50 [2]: < 6.52
C[C@@H](NC(=O)c1ncnc(N)c1Cl)c1ncc(C(=O)Nc2cc(C(F)(F)F)c(Cl)cn2)s1 | 102% [middle of 4 runs] | 110% [middle of 4 runs] | 112% [middle of 4 runs] | 124% and 105% and 112% (2×) |  |  |  |  | < 5.00 and 5.05 |  | 
Nc1ccn(C2OC(CO)C(O)C2(F)F)c(=O)n1 (stereo unspecified) | 29.4% [middle of 4 runs] | 16.2% [middle of 4 runs] | 15.4% [middle of 4 runs] | 15.7% [middle of 4 runs] |  |  | 101% [middle of 4 runs] | 46.9% [middle of 4 runs] |  | 9.77 nM [middle of 4 runs] | 
O=C(c1ccc(F)c(F)c1Nc1ccc(I)cc1F)N1CC(O)([C@@H]2CCCCN2)C1 | 81.5% [middle of 4 runs] | 41.5% [middle of 4 runs] | 19.9% [middle of 4 runs] | 5.56% [middle of 4 runs] |  |  | 111% [middle of 4 runs] | 102% (2×) and 95.7% and 113% |  | 78 nM [middle of 4 runs] | 
